# Source: patent publication US20250304630A1, “POLYPEPTIDES HAVING OSMOPROTECTIVE ACTIVITY, COMPOSITIONS THEREOF AND USES THEREOF” (DELAVIE SCIENCES, LLC, priority 2022, published 2025)
# Marks after values point to notes of the source that are not given here.
# How the values were obtained:
# [1] = Osmotic stress assay: keratinocytes pretreated, exposed to hypertonic NaCl media, viability by MTT; format: cell-based, human; settings: human, human adult epidermal keratinocytes, then 24 h with 0 mM added NaCl, MTT, % of untreated 0 mM NaCl control, mean +/- SD, read-out: Cell Viability
# Method: (§1) This assay procedure was used to screen the recombinantly produced HSP for its ability to protect against osmotic stress, using cultured human keratinocytes as the testing model. The assay used changes in cell viability as the endpoint for measuring the protective effect.
# (§2) For this study, human keratinocytes were pretreated for 24 hours with either HSP, a mild hypertonic solution of sorbitol (positive control), or left untreated (negative control). After the pretreatment, the cell culture media was replaced with media supplemented with NaCl at progressively increasing hypertonic concentrations. The cells were then incubated again for 24 hours. After the second incubation, cell viability was determined using an MTT assay.
# (§3) The MTT assay is a colorimetric analysis of the metabolic activity of the cell, which is a reflection of cell viability. Viable cells can take up MTT, which is then reduced by mitochondria, resulting in the formation of insoluble purple formazin crystals. These crystals are then extracted from the cells with isopropanol and quantified spectrophotometrically. The intensity of the purple color is directly proportional to the number of viable cells.
# (§4) Human adult epidermal keratinocytes were grown using EpiLife Media (60 µM calcium) supplemented with 0.2% v/v bovine pituitary extract, 1 μg/ml recombinant human insulin-like growth factor-1, 0.18 μg/ml hydrocortisone, 5 μg/ml bovine transferrin, 0.2 ng/ml human epidermal growth factor. When a sufficient number of cells had been grown, they were transferred to 96-well plates and cultured for a minimum of 24 hours to allow the cells to adhere to the well plates. The cells were then used when they were fully confluent.
# (§5) The test materials and the sorbitol positive controls were prepared in fully supplemented EpiLife media. Supplemented EpiLife media alone served as the untreated control. These solutions were applied to the keratinocytes in the 96-well plates, after which the plates were incubated for 24 hours at 37±2° C. and 5±1% CO2.
# (§6) After the pretreatment incubation, the cell culture media was removed from both of the 96-well plates and replaced with supplemented EpiLife media which had progressively increasing concentrations of additional NaCl added (0, 75, 100, 125 and 150 mM) to generate a series of increasingly hypertonic solutions. After the addition of the media/NaCl, the 96-well plates were incubated for an additional 24 hours.
# (§7) After the second 24-hour incubation, the cell culture media was removed and the cells were washed once with phosphate buffered saline. After washing, 100 μl of keratinocyte cell culture media supplemented with MTT (0.5 mg/ml) was added to each well. The 96-well plates were returned to the incubator (37+2° C. and 5+1% CO2) for one hour. After the incubation the MTT solution was removed via aspiration and the cells were rinsed twice with phosphate buffered saline to remove any residual MTT on the outside of the cells and then 100 μl of isopropyl alcohol was added to the wells to extract the purple formazin crystals. The well plates were then read at 540 nm using isopropyl alcohol as a blank.
# (§8) The mean MTT absorbance value for the untreated control cells not exposed to any osmotic stress (0 mM NaCl) was calculated and used to represent 100% cell viability. The individual MTT values from the cells undergoing the various treatments were then divided by the mean value for the negative control cells and expressed as a percentage to determine the change in cell viability caused by each treatment.
# [2] = test system: human keratinocytes; experiment: as above; format: cell-based; settings: for Cell Viability: MTT, % of untreated 0 mM NaCl control, mean +/- SD
# Method: as §1, §2, §3, §4, §5, §6, §7, §8
# [3] = ORAC assay, loss of FITC fluorescence with AAPH; format: biochemical
# Method: (§9) This assay procedure was used to screen materials for antioxidant properties using non-cell-based methods. Dilutions of HSP tested were 10%, 5%, 1%, 0.5%, 0.1%, 0.05%, and 0.01%.
# (§10) Fluorescein (FITC) is normally a highly fluorescent molecule, yet when fluorescein is oxidized by either peroxyl radicals or hydroxyl radicals, it loses its fluorescence. Thus, when FITC is incubated in the presence of 2,2′-azobis(2-amidino-propane) dihydrochloride (AAPH, a peroxyl radical generating compound), or a combination of hydrogen peroxide and cobalt (a hydroxyl radical generating system based on the Fenton-type reaction), there will be a time dependent loss of FITC fluorescence. However, if a material with antioxidant properties is present during the incubation, the loss of fluorescence will be delayed as some of the peroxyl or hydroxyl radicals react with the antioxidant material instead of the FITC. Under these conditions, the delay or prevention in fluorescence decay will be in proportion to the antioxidant capacity of the test material.
# For the ORAC assay, the test materials were prepared in Assay Buffer at 10× their final desired concentrations. Trolox was used as the positive control for this assay. To start the assay, 20 μl of the test material or positive control were added to the wells of a 96-well plate. All of the samples were prepared in triplicate. Next, 160 μl of a 360 nM FITC solution was added to each well and the plate was incubated for 30 minutes in the dark. After this incubation, 20 μl of a 153 mM AAPH (peroxyl radical generator) was added to each well. The plate was mixed and then read using a Fluoroskan Ascent Fluorometer at 2.5-minute intervals for 60 minutes with an excitation wavelength of 480 nm and an emission wavelength of 518 nm.
# (§11) The loss of FITC fluorescence can be graphed by plotting fluorescence intensity vs time for each of the samples to generate a fluorescence decay curve. The area under this curve (AUC) then represents the extent of FITC fluorescence loss over the course of the assay, and this measurement is then used as an index for the effectiveness of the antioxidant samples. The AUC for a sample can be calculated using the following equation: […]
# (§12) Where RFUO is the initial fluorescence measurement of the sample at time 0, with each subsequent RFU measurement indicated by the respective increased numbers. The AUC measurements were then used to determine the percent inhibition for each concentration of the test material screened, followed by the determination of the IC50, the concentration of the material at which 50% of the FITC signal loss due to radical interaction is prevented.
# [4] = HORAC assay (OxiSelect HORAC Assay), loss of FITC fluorescence; format: biochemical
# Method: as §9, §10
# The HORAC assay was performed as specified by the manufacturer of the kit. For the assay, the test materials were prepared in Assay Buffer at 10× their final desired concentrations. Caffeic acid was used as the positive control for this assay. To start the assay, 20 μl of the test material or positive control were added to the wells of a 96-well plate. All of the samples were prepared in triplicate. Next, 140 μl of an FITC solution was added to each well and the plate was incubated for 30 minutes in the dark. After this incubation, 20 μl of a hydrogen peroxide solution (Hydroxyl Radical Initiator) was added to each well, followed by the addition of 20 μl of a cobalt solution (Fenton Reagent). The plate was mixed and then read using a Fluoroskan Ascent Fluorometer at 3-minute intervals for 60 minutes with an excitation wavelength of 480 nm and an emission wavelength of 518 nm.
# as §11, §12
# [5] = concentration at which 50% of the FITC signal loss is prevented
structure (smiles),measurement,setting,value
"OC[C@@H](O)[C@@H](O)[C@H](O)[C@@H](O)CO [Sorbitol, sorbitol, reference compound]","viability at 24 h, 12.5 mM",[1]; 24 h pretreatment with 12.5 mM Sorbitol,101%
same,"viability at 24 h, 25 mM",[1]; 24 h pretreatment with 25 mM Sorbitol,122%
same,Cell Viability,"[2]; 24 h pretreatment with 12.5 mM Sorbitol, then 24 h with 75 mM added NaCl",103.2 +/− 1.8%
same,Cell Viability,"[2]; 24 h pretreatment with 12.5 mM Sorbitol, then 24 h with 100 mM added NaCl",98.3 +/− 6.0* %
same,Cell Viability,"[2]; 24 h pretreatment with 12.5 mM Sorbitol, then 24 h with 125 mM added NaCl",73.2 +/− 13.3* %
same,Cell Viability,"[2]; 24 h pretreatment with 12.5 mM Sorbitol, then 24 h with 150 mM added NaCl",24.1 +/− 9.6%
same,Cell Viability,"[2]; 24 h pretreatment with 25 mM Sorbitol, then 24 h with 75 mM added NaCl",100.0 +/− 7.7%
same,Cell Viability,"[2]; 24 h pretreatment with 25 mM Sorbitol, then 24 h with 100 mM added NaCl",93.9 +/− 2.8* %
same,Cell Viability,"[2]; 24 h pretreatment with 25 mM Sorbitol, then 24 h with 125 mM added NaCl",69.5 +/− 9.7* %
same,Cell Viability,"[2]; 24 h pretreatment with 25 mM Sorbitol, then 24 h with 150 mM added NaCl",29.5 +/− 5.6%
same,cell viability versus untreated cell samples,[2]; at both 100 mM and 125 mM NaCl,significantly greater than the untreated cell samples
same,osmoprotective effect,[2]; highest concentration of added NaCl (150 mM),neither HSP nor sorbitol (positive control) showed a significant osmoprotective effect
same,effect on the reduction in cell viability caused by the increase in hypertonicity,"[2]; increasing added NaCl, overall statement",slow the reduction in cell viability
"Cc1c(C)c2c(c(C)c1O)CCC(C)(C(=O)O)O2 (stereo not shown) [Trolox, reference compound]",Percent Inhibition,[3]; concentration 0.078125 ug/ml,30.79%
same,Percent Inhibition,[3]; concentration 0.15625 ug/ml,47.09%
same,Percent Inhibition,[3]; concentration 0.3125 ug/ml,68.77%
same,Percent Inhibition,[3]; concentration 0.625 ug/ml,83.84%
same,Percent Inhibition,[3]; concentration 1.25 ug/ml,84.06%
same,Percent Inhibition,[3]; concentration 2.5 ug/ml,87.4%
same,Percent Inhibition,[3]; concentration 5 ug/ml,90.3%
same,IC50,[3]; [5],IC50: 0.42 ug/ml
"O=C(O)/C=C/c1ccc(O)c(O)c1 [Caffeic Acid, Caffeic acid, reference compound]",Percent Inhibition,[4]; concentration 0.625 ug/ml,8.85%
same,Percent Inhibition,[4]; concentration 1.25 ug/ml,14.56%
same,Percent Inhibition,[4]; concentration 2.5 ug/ml,56.30%
same,Percent Inhibition,[4]; concentration 5 ug/ml,68.86%
same,Percent Inhibition,[4]; concentration 10 ug/ml,60.03%
same,Percent Inhibition,[4]; concentration 20 ug/ml,62.58%
same,IC50,[4]; [5],IC50: 3.25 ug/ml
